Here are results for three compounds from patent publication EP0791056B1, “LIPID-CLEAVAGE ENZYME COMPLEX” (priority 1994, dated 1996).

Each structure is given as a SMILES string.

For data set [1], the system named is P3X63Ag8.653-Zellen. Nature of the data set: Intracellular concentrations of AZT and AZT nucleotides (radioimmunoassay) in thymidine kinase deficient cells. Type of data set: in vitro ADME. To be noted: after 48 h. The source says:
Die Bestimmung der intrazellulären Konzentrationen an AZT und AZT-Nukleotiden in Thymidikinasedefizienten Zellen sollte weitere Erkenntnisse über die intrazelluläre Spaltung der Testsubstanz AZT-DMDOPE liefern. Intrazelluläres AZT kann in diesen Zellen aufgrund eines Mangels an Thymidin-Kinase (TK) nicht in ATZ-MP und somit in das therapeutisch wirksame AZT-TP überführt werden. Die Bestimmung der intrazellulären Konzentrationen an AZT und AZT-Nukleotiden nach Inkubation mit AZT-DMDOPE könnte somit einen weiteren Hinweis auf die Spaltung der Teststubstanz geben.
Hierfür wurden in Gewebekulturschalen (60 x 15 mm) 1 x 10^7 Zellen in RPMI 1640 Komplettmedium I mit 0.03 bzw. 0.3 µg AZT/ml und 1 bzw. 10 µg AZT-DMDOPE/ml über 6, 24 und 48 h inkubiert. Nach Extraktion von AZT und der AZT-Nukleotide und einer Behandlung mit alkalischer Phosphatase wurde die Konzentration an AZT mit Hilfe des Radioimmuno-Assays bestimmt.

For data set [2], the system named is stimulierten humanen PBL. The data set is described as follows: Intracellular decay kinetics of AZT and AZT nucleotides after removal of the incubation solution. The data set is classed as in vitro ADME, human. To be noted: 24 h preincubation with 0.3 µg AZT/ml, reached 6 h after removal. The method, then: Stimulierte humane PBL wurden für 24 h mit 0.3 µg AZT/ml bzw. 10 µg AZT-DMDOPE/ml inkubiert. Anschließend wurden 1 x 10^7 Zellen in Gewebekulturflaschen (50 ml/25 cm^2) mit RPMI 1640 Komplettmedium I überführt. Nach 1, 3, 6, 24 und 48 h wurde AZT und die AZT-Nukleotide aus der zellulären Matrix extrahiert. Nach einer Behandlung mit alkalischer Phosphatase wurde mit Hilfe des Radioimmuno-Assays die Konzentration an AZT bestimmt.

Data set [3] addresses virale reverse Transkriptase (RT) (Human immunodeficiency virus type 1 group M subtype B, UniProt P04585). To be noted: intracellular AZT in non-phosphorylated form; cited from earlier work.
Data set [4] deals with nichtstimulierten humanen PBL. Nature of the data set: Intracellular concentrations of AZT and AZT nucleotides (radioimmunoassay) in non-stimulated human PBL. Type of data set: in vitro ADME. The source says: AZT wurden humane PBL aus "Buffy coat" isoliert.
Data set [5] deals with stimulierten humanen PBL. The data set is described as follows: Intracellular concentrations of AZT and AZT nucleotides (radioimmunoassay) in stimulated human PBL. To be noted: for Konzentrationen an AZT und AZT-Nukleotiden nach Abfall bei zunehmender Inkubationszeit: up to 24 h. From the text: Zur Bestimmung der intrazellulären Konzentrationen an AZT und/oder AZT-Nukleotiden nach Inkubation mit AZT-DMDOPE bzw. AZT wurden humane PBL aus "Buffy coat" isoliert.
Hierfür wurde "Buffy-coat" von gesunden Spendern gemischt und durch Zentrifugation in einem isotonischen Medium mit einer Dichte von 1.077 g/ml fraktioniert. Da mononukleare Blutzellen (Monozyten und Lymphozyten) eine geringere Dichte als Erythrozyten und polymorphkernige Granulozyten haben, bilden sie einen Ring an der Grenze zwischen Trennmedium und Probe und können mit Hilfe einer Pipette abgenommen werden. Erythrozyten und polymorphkernige Granulozyten sedimentieren aufgrund ihrer höheren Dichte durch das Medium und lassen sich somit von PBL separieren. Zur Stimulation der Zellproliferation wurde Phytohämaglutinin A (Mukoprotein) (PHA-M), der mitogene Lektinextrakt aus der roten Feuerbohne (Phaseolus vulgaris), eingesetzt. Phytohämagglutinin ist eine Familie von 5 Isolektinen, die als Tetramere vorliegen. Die Untereinheiten bestehen aus einem lymphozytenreaktiven Typ-L und einem erythrozytenreaktiven Typ-E. Typ-L hat eine hohe Affinität zu Lymphozytenoberflächenrezeptoren und ist somit verantwortlich für die mitogenen Eigenschaften. Die Stimulation der Lymphozyten wurde in KPMI 1640 Komplettmedium III für 72 h bei 37 °C und 5 % CO2 durchgeführt. Nach Beendigung der Stimulation wurden zur Erhöhung der Zellzahl die Zellen für weitere 24 h in RPMI 1640 Komplettmedium IV kultiviert.
Zur Bestimmung der intrazellulären Konzentrationen an AZT und AZT-Nukleotiden wurden die Zellen in RPMI 1640 Komplettmedium II mit einer Dichte von 1 x 10^6 Zellen/ml in Gewebekulturflaschen (50 ml/25 cm^2) überführt, und in Anwesenheit von 0.03 bzw. 0.3 µg AZT/ml (Charge 15) und 1 bzw. 10 µg AZT-DMDOPE/ml für 1 - 24 h inkubiert.
Die Kulturen wurden anschließend für 1, 3, 6 und 24 h bei 37 °C und 5 % CO2 inkubiert. AZT und seine Nukleotide wurden anschließend mit 60 % Methanol extrahiert. Die extrahierten Nukleotide wurden mit alkalischer Phosphatase quantitativ zu AZT dephosphoryliert, da nur AZT, nicht jedoch die entsprechenden Nukleotide mit Hilfe eines Radioimmuno-Assays detektiert werden kann.
Die Konzentrationen an intrazellulärem AZT, die mit Hilfe des Radioimmuno-Assays bestimmt wurden, setzten sich dementsprechend aus der des AZT und den der AZT-Nukleotide zusammen. Eine separate Quantifizierung der Konzentrationen an AZT-MP, AZT-DP und AZT-TP wurde nicht durchgeführt.
Diese Experimente wurden an stimulierten humanen PBL durchgeführt.
Hierfür wurden Zellsuspensionen mit einer Dichte von 10^6 Zellen/ml mit 1 bzw. 10 µg AZT-DMDOPE/ml für 6 bzw. 24 h bei 37 °C und 5 % CO2 inkubiert.
Zur quantitativen Bestimmung von AZT wurde ein kommerzieller ^125J-AZT RIA Test-Kit verwendet. Puffer und Lösungen wurden gemäß den Angaben des Herstellers angesetzt und im Test-Kit eingesetzt. Die Reaktionsansätze wurden nach untenstehendem Schema (Tab. ) pipettiert, vorsichtig gemischt und für 2 h bei Raumtemperatur inkubiert. Anschließend wurden zur Präzipitation des Komplexes aus ^125J-AZT und des AZT-Antikörpers (aus Kaninchen) 500 µl des Ziege-Anti-Kaninchen-Antikörpers hinzugefügt. Die Ansätze wurden gemischt und erneut bei Raumtemperatur für 30 min inkubiert.

Data set [6] has as its system stimulierten PBL. The following applies: stimulierte PBL, Arner et al., 1992; cited from earlier work.
The subject of data set [7] is LCE. Nature of the data set: Influence of enzyme inhibitors or activators on LCE activity, CEM-SS membrane fraction. The following applies: LCE Membranfraktion CEM-SS. The data set is classed as biochemical. The method, then: (§1) Das Pipettierschema ist in der folgenden Tabelle angegeben. Tabelle
(§2) Zur Untersuchung der enzymatischen Spaltung in Abhängigkeit von der Substratkonzentration wurde eine Substratstammlösung von 0.98 nmol [^14C]-AZT-DMDOPE und 0.7 nmol AZT-DMDOPE/80 µl Aqua bidest. im LCE-Assay angesetzt. Die verschiedenen Substratkonzentrationen im LCE-Assay wurden durch kontinuierliche Verdopplung bzw. Halbierung des Volumens an Substratlösung eingestellt. Die Ansätze wurden in Glasröhrchen (5 ml) vorgelegt und durch Zugabe der Substratlösung gestartet. Die Inkubation wurde bei 37 °C im Wasserbad unter leichtem Schütteln durchgeführt.
Die Reaktionsansätze des LCE-Assays wurden nach entsprechender Inkubationszeit dem Wasserbad entnommen, und die Reaktion durch Zugabe von 750 µl 2-Propanol gestoppt. Nach gründlicher Durchmischung wurden die Ansätze anschließend mit 700 µl auf Raumtemperatur erwärmtem n-Heptan versetzt. Die Ansätze wurden erneut für 30 sec gut gemischt und zur Beschleunigung der Phasentrennung in der Minifuge T bei 3200 rpm für 15 min bei Raumtemperatur zentrifugiert. Anschließend wurden 500 µl der oberen Phase (n-Heptan) entnommen und in neue Glasröhrchen (5 ml) mit 10 mg Kieselgel 60 H und 200 µl n-Heptan überführt. Die Ansätze wurden für 30 sec gut durchmischt und zur Sedimentation des Kieselgels für 10 min unter oben genannten Bedingungen zentrifugiert. […]

In data set [8] the test system is Phospholipase C. To be noted: cited from earlier work.
The test system of data set [9] is LCE. Nature of the data set: Influence of enzyme inhibitors or activators on LCE activity, kidney membrane fraction. Type of data set: biochemical, Balb/c. To be noted: LCE Membranfraktion Niere (Balb/c). The method, then: as §1, §2
Die Reaktionsansätze des LCE-Assays wurden nach entsprechender Inkubationszeit dem Wasserbad entnommen, und die Reaktion durch Zugabe von 750 µl 2-Propanol gestoppt. Nach gründlicher Durchmischung wurden die Ansätze anschließend mit 700 µl auf Raumtemperatur erwärmtem n-Heptan versetzt. Die Ansätze wurden erneut für 30 sec gut gemischt und zur Beschleunigung der Phasentrennung in der Minifuge T bei 3200 rpm für 15 min bei Raumtemperatur zentrifugiert. Anschließend wurden 500 µl der oberen Phase (n-Heptan) entnommen und in neue Glasröhrchen (5 ml) mit 10 mg Kieselgel 60 H und 200 µl n-Heptan überführt. Die Ansätze wurden für 30 sec gut durchmischt und zur Sedimentation des Kieselgels für 10 min unter oben genannten Bedingungen zentrifugiert. Vom Überstand wurden anschließend 500 µl entnommen und mit 3 ml Szintillationsflüssigkeit versetzt. Die Messung der Radioaktivität erfolgte für 4 min im Flüssigkeits-Szintillations-Analysator. Zur Bestimmung des Absolutwertes an Radioaktivität wurden 200 µl der Substratlösung mit 3 ml Szintillationsflüssigkeit versetzt und unter gleichen Bedingungen im Flüssigkeits-Szintillations-Analysator gemessen.

The subject of data set [10] is LCE. Nature of the data set: Effect of phospholipase C/D inhibitors and activators on LCE as stated in the description. Type of data set: biochemical.

As for `Cc1cn([C@H]2C[C@H](N=[N+]=[N-])[C@@H](CO)O2)c(=O)[nH]c1=O` [AZT, 3'-Desoxy-3'-azidothymidin, reference compound], the results for the “maximale intrazelluläre Konzentrationen an AZT und AZT-Nukleotiden” value in data set [1] (0.03 µg AZT/ml) and in [1] (0.3 µg AZT/ml) were 0.03 ng/10^6 Zellen and 0.31 ng/10^6 Zellen, respectively. In data set [2], the “konstanter Wert der intrazellulären Konzentrationen an AZT und AZT-Nukleotiden” value worked out at 0.40 ng/10^6 Zellen. Also, the “inhibitorische Wirkung auf die virale reverse Transkriptase (RT)” value in [3] is “keine inhibitorische Wirkung”. In addition, the “intrazelluläre Konzentrationen an AZT und AZT-Nukleotiden” value in data set [4] (0.03 µg AZT/ml) is 0.10 ng/10^6 Zellen; in data set [4] (0.3 µg AZT/ml) it was 0.47 ng/10^6 Zellen. The “maximale Konzentrationen an AZT und AZT-Nukleotiden” value in data set [5] (incubation with 0.03 µg AZT/ml, reached after 6 h) came out at 2.90 ng/10^6 Zellen; in data set [5] (incubation with 0.3 µg AZT/ml, reached after 3 h), 30.97 ng/10^6 Zellen. Also, the figures for the “Konzentrationen an AZT und AZT-Nukleotiden nach Abfall bei zunehmender Inkubationszeit” value in data set [5] (incubation with 0.03 µg AZT/ml) and in data set [5] (incubation with 0.3 µg AZT/ml) were 2.32 ng/10^6 Zellen and 19.88 ng/10^6 Zellen, respectively.

For the compound `Cc1cn([C@H]2C[C@H](N=[N+]=[N-])[C@@H](COP(=O)(O)O)O2)c(=O)[nH]c1=O` [AZT-MP, 3'-Desoxy-3'-azidothymidin-monophosphat], in [6], the “im Vergleich zu AZT-DP und AZT-TP um Faktor höhere Konzentration an AZT-MP” value is 40.

`S=C(S)OC1CC2CC1C1CCCC21` (stereo not drawn) [D 609, Tricyclodecan-9-yl-xanthogenat]: the “Einfluß auf LCE-Aktivität” value in data set [7] and in data set [9] was “Stimulation Stimulation” each time. The “Einfluß auf Phospholipase C” value in data set [8] is recorded as “inhibiert”. In addition, in [10], the “Einfluß auf LCE (Hemmung/Aktivierung)” value was “aktiviert”.
